Experimental data from the CheMixHub viscosity set.

Assay: xn = mol fraction of the nth substance listed
Details: 101 kPa

CCCBr + c1ccccc1
308.15 K
Details | viscosity [mPa·s]
x2 = 0.1021 | 0.4369
x2 = 0.2992 | 0.4373
x2 = 0.3987 | 0.4413
x2 = 0.5041 | 0.4461
x2 = 0.6028 | 0.4525
x2 = 0.7033 | 0.4619
x2 = 0.8414 | 0.478
x2 = 0.8979 | 0.4898

CCCC(=O)OC + c1ccccc1
viscosity [mPa·s]
Details | x2 = 0.1316 | x2 = 0.1994 | x2 = 0.2999 | x2 = 0.3974 | x2 = 0.5001 | x2 = 0.6023 | x2 = 0.7044 | x2 = 0.7999 | x2 = 0.8939
298.15 K | 0.536 | 0.534 | 0.535 | 0.536 | 0.54 | 0.544 | 0.551 | 0.561 | 0.575
313.15 K | 0.451 | 0.45 | 0.45 | 0.451 | 0.453 | 0.456 | 0.46 | 0.466 | 0.476

ClCc1ccccc1 + c1ccccc1
viscosity [mPa·s]
Details | x2 = 0.1988 | x2 = 0.3583 | x2 = 0.489 | x2 = 0.5982 | x2 = 0.6907 | x2 = 0.7701 | x2 = 0.839 | x2 = 0.8993 | x2 = 0.9526
298.15 K | 0.9856 | 0.8952 | 0.8251 | 0.7742 | 0.7152 | 0.6823 | 0.6598 | 0.6485 | 0.6042
303.15 K | 0.9782 | 0.8724 | 0.8024 | 0.7153 | 0.6942 | 0.6324 | 0.6248 | 0.5923 | 0.5634
308.15 K | 0.9265 | 0.8258 | 0.7865 | 0.7026 | 0.6294 | 0.6058 | 0.5861 | 0.5592 | 0.5389
313.15 K | 0.9357 | 0.8562 | 0.7548 | 0.6994 | 0.6241 | 0.5826 | 0.5742 | 0.5486 | 0.5095
